# Source: patent US11066414B2, “Cot modulators and methods of use thereof” (Gilead Sciences, Inc., priority 2015, dated 2021)
# Like-named read-outs stand apart in the source and are kept apart here.
# What was measured:
# [1] = test system: TNFα; assay: Cot Monocyte TNFα Cell Based Assay
# [2] = molecular target: Human Cot (Homo sapiens (Human), UniProt P41279); assay: High Throughput Cot Biochemical Assay
# [3] = Homo sapiens, Monocyte, read-out: EC50 TNF, LPS-stimulated human monocytes, TNFα
# [4] = IC50 HTRF, Cot HTRF (TR-FRET) biochemical assay
# [5] = read-out: EC50 TNF, LPS-stimulated human monocytes, TNFα
# [6] = read-out: IC50 HTRF, Cot HTRF (TR-FRET) biochemical assay
# [7] = Homo sapiens, Monocyte, read-out: EC50 TNF, LPS-stimulated human monocytes, TNFα TR-FRET
# [8] = IC50 HTRF, Cot HTRF (TR-FRET KinEASE) biochemical assay, 400 μM ATP
# Human Cot, sequence (P41279 30-397): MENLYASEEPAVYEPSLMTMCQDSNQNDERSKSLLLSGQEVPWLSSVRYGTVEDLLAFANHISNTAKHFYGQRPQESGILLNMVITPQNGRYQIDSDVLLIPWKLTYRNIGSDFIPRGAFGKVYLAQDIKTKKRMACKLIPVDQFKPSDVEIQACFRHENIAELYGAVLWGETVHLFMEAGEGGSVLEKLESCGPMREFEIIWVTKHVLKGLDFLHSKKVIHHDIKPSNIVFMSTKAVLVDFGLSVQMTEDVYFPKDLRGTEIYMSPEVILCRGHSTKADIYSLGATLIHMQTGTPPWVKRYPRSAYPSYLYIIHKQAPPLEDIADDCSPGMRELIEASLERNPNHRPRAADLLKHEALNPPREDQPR
Structure (SMILES),"EC50 [1, 3]","IC50 [2, 4]",also measured
"C[C@@H](Nc1c(C#N)cnc2c(Cl)cc(N[C@@H](c3cccnc3)c3c[nH]nn3)cc12)c1ccccc1 [Example 255, 8-chloro-4-(((R)-1-phenylethyl)amino)-6-(((S)-pyridin-3-yl(1H-1,2,3-triazol-4-yl)methyl)amino)quinoline-3-carbonitrile]",766 nM,10 nM,
"N#Cc1cnc2c(Cl)cc(N[C@@H](c3cccnc3)c3cn(C4COC4)nn3)cc2c1N[C@H](CCO)c1ccccc1 [Example 183, 8-chloro-4-(((R)-3-hydroxy-1-phenylpropyl)amino)-6-(((S)-(1-(oxetan-3-yl)-1H-1,2,3-triazol-4-yl)(pyridin-3-l)methyl)amino)-quinoline-3-carbonitrile]",,,"EC50 [1, 5]: > 10000 nM; IC50 [2, 6]: 357 nM"
"Cc1nc(F)ccc1[C@H](Nc1cc(Cl)c2ncc(C#N)c(Nc3cnc(F)c(F)c3)c2c1)c1cn(C2(C(F)F)CC2)nn1 [Example 742, (S)-8-chloro-6-(((1-(1-(difluoromethyl)cyclopropyl)-1H-1,2,3-triazol-4-yl)(6-fluoro-2-methylpyridin-3-yl)methyl)amino)-4-((5,6-difluoropyridin-3-yl)amino)quinoline-3-carbonitrile]",199 nM,17 nM,
"Cn1c(=O)ccc2c([C@H](Nc3cc(C#N)c4ncc(C#N)c(NCC(C)(C)C)c4c3)c3cn(C45CC(C4)C5)nn3)cccc21 [Example 887, (S)-6-(((1-(bicyclo[1.1.1]pentan-1-yl)-1H-1,2,3-triazol-4-yl)(1-methyl-2-oxo-1,2-dihydroquinolin-5-yl)methyl)amino)-4-(neopentylamino)quinoline-3,8-dicarbonitrile]",,,"EC50 [1, 7]: 33 nM; IC50 [2, 8]: 3 nM"
"Cc1n[nH]c2cccc([C@H](Nc3cc(C#N)c4ncc(C#N)c(NCC(C)(C)C)c4c3)c3cn(C4(C(F)(F)F)CC4)nn3)c12 [Example 528, (S)-6-(((3-methyl-1H-indazol-4-yl)(1-(1-(trifluoro-methyl)cyclopropyl)-1H-1,2,3-triazol-4-yl)methyl)amino)-4-(neopentylamino)quinoline-3,8-dicarbonitrile]",60 nM,3 nM,
"Cc1nc(F)ccc1[C@H](Nc1cc(Cl)c2ncc(C#N)c(N[C@@H]3CCOCC3(C)C)c2c1)c1cn(C2(C(F)F)CC2)nn1 [Example 539, 8-chloro-6-(((S)-(1-(1-(difluoromethyl)-cyclopropyl)-1H-1,2,3-triazol-4-yl)(6-fluoro-2-methylpyridin-3-yl)methyl)-amino)-4-(((R)-3,3-dimethyltetrahydro-2H-pyran-4-yl)amino)quinoline-3-carbonitrile]",12 nM,1 nM,
"CC(C)(C)CNc1c(C#N)cnc2c(Cl)cc(N[C@H](c3cn(C4CC4)nn3)c3cccc4cccnc34)cc12 [Example 450, (S)-8-chloro-6-(((1-cyclopropyl-1H-1,2,3-triazol-4-yl)(quinolin-8-yl)methyl)amino)-4-(neopentylamino)quinoline-3-carbonitrile]",356 nM,20 nM,
"CC[C@@H](Nc1c(C#N)cnc2c(Cl)cc(NC(c3cn(C4CC4)nn3)c3cccnc3Cl)cc12)c1ccccc1 (stereo partly drawn) [Example 124, 8-chloro-6-(((2-chloropyridin-3-yl)(1-cyclopropyl-1H-1,2,3-triazol-4-yl)methyl-d)amino)-4-(((R)-1-phenylpropyl)amino)quinolme-3-carbonitrile]",,,"EC50 [1, 5]: 376 nM; IC50 [2, 6]: 8 nM"
"CC(C)(O)[C@@H](Nc1c(C#N)cnc2c(Cl)cc(N[C@@H](c3cccnc3)c3c[nH]nn3)cc12)c1ccccc1 [Example 186, 8-chloro-4-(((S)-2-hydroxy-2-methyl-1-phenylpropyl)amino)-6-(((S)-pyridin-3-yl(1H-1,2,3-triazol-4-yl)methyl)amino)quinoline-3-carbonitrile]",6620 nM,118 nM,
"CC(C)(C)N1CCC(n2cc([C@@H](Nc3cc(Cl)c4ncc(C#N)c(Nc5ccc(F)c(Cl)c5)c4c3)C3=CCOCC3)nn2)CC1 [Example 264, (S)-6-(((1-(1-(tert-butyl)piperidin-4-yl)-1H-1,2,3-triazol-4-yl)(3,6-dihydro-2H-pyran-4-yl)methyl)amino)-8-chloro-4-((3-chloro-4-fluorophenyl)-amino)quinoline-3-carbonitrile]",70 nM,2 nM,
"Cc1nc(F)ccc1[C@H](Nc1cc(Cl)c2ncc(C#N)c(NCC(C)(C)CC#N)c2c1)c1cn(C2(C(F)F)CC2)nn1 [Example 512, (S)-8-chloro-4-((3-cyano-2,2-dimethyl-propyl)amino)-6-(((1-(1-(difluoromethyl)-cyclopropyl)-1H-1,2,3-triazol-4-yl)(6-fluoro-2-methylpyridin-3-yl)methyl)amino)quinoline-3-carbonitrile]",418 nM,10 nM,
"Cc1nc(F)ccc1[C@H](Nc1cc(C#N)c2ncc(C#N)c(NCC(C)(C)C)c2c1)c1cn(C2(C)CC2)nn1 [Example 492, (S)-6-(((6-fluoro-2-methylpyridin-3-yl)(1-(1-methylcyclopropyl)-1H-1,2,3-triazol-4-yl)methyl)amino)-4-(neopentylamino)-quinoline-3,8-dicarbonitrile]",21 nM,2 nM,
"CCc1nc(F)ccc1[C@H](Nc1cc(C#N)c2ncc(C#N)c(NCC(C)(C)C)c2c1)c1cn(C2(C(F)(F)F)CC2)nn1 [Example 598, (S)-6-(((2-ethyl-6-fluoropyridin-3-yl)(1-(1-(trifluoromethyl)cyclopropyl)-1H-1,2,3-triazol-4-yl)methyl)amino)-4-(neopentylamino)-quinoline-3,8-dicarbonitrile]",198 nM,5 nM,
"Cc1ncsc1[C@H](Nc1cc(C#N)c2ncc(C#N)c(NCC(C)(C)C)c2c1)c1cn(C2(C(F)(F)F)CC2)nn1 [Example 904, (R)-6-(((4-methylthiazol-5-yl)(1-(1-(trifluoromethyl)cyclopropyl)-1H-1,2,3-triazol-4-yl)methyl)amino)-4-(neopentylamino)quinoline-3,8-dicarbonitrile]",,,"EC50 [1, 7]: 78 nM; IC50 [2, 8]: 5 nM"
"Cc1nc(Cl)ccc1[C@H](Nc1cc(Cl)c2ncc(C#N)c(Nc3ccc(F)c(Cl)c3)c2c1)c1cn(C(C)C)nn1 [Example 294, (S)-8-chloro-6-(((6-chloro-2-methylpyridin-3-yl)(1-isopropyl-1H-1,2,3-triazol-4-yl)methyl)amino)-4-((3-chloro-4-fluorophenyl)amino)quinoline-3-carbonitrile]",166 nM,9 nM,
"Cc1nc(F)ccc1[C@H](Nc1cc(Cl)c2ncc(C#N)c(NCC(C)(C)C)c2c1)c1cn(C2CC2)nn1 [Example 716, (S)-8-chloro-6-(((1-cyclopropyl-1H-1,2,3-triazol-4-yl)(6-fluoro-2-methylpyridin-3-yl)methyl)amino)-4-(neopentylamino)quinoline-3-carbonitrile]",54 nM,2 nM,
"CC(C)(C)CNc1c(C#N)cnc2c(Cl)cc(N[C@@H](c3cccnc3)c3c[nH]nn3)cc12 [Example 167, (S)-8-chloro-4-(neopentylamino)-6-((pyridin-3-yl(1H-1,2,3-triazol-4-yl)methyl)amino)quinoline-3-carbonitrile]",506 nM,4 nM,
"Cc1nc(F)ccc1[C@H](Nc1cc(C#N)c2ncc(C#N)c(NCC(C)(C)C)c2c1)c1cn(CC2(C(F)(F)F)CC2)nn1 [Example 839, (S)-6-(((6-fluoro-2-methylpyridin-3-yl)(1-((1-(trifluoromethyl)cyclo-propyl)methyl)-1H-1,2,3-triazol-4-yl)methyl)amino)-4-(neopentylamino)quinoline-3,8-dicarbonitrile]",,,"EC50 [1, 7]: 94 nM; IC50 [2, 8]: 6 nM"
"Cc1ncsc1[C@H](Nc1cc(Cl)c2ncc(C#N)c(Nc3cccc(Cl)c3F)c2c1)c1cn(C(C)C)nn1 [Example 252, (R)-8-chloro-4-((3-chloro-2-fluorophenyl)amino)-6-(((1-isopropyl-1H-1,2,3-triazol-4-yl)(4-methylthiazol-5-yl)methyl)-amino)quinoline-3-carbonitrile]",119 nM,6 nM,
"N#Cc1cnc2c(Cl)cc(NC(c3cccnc3)c3ccccn3)cc2c1Nc1ccc(F)c(Cl)c1 (stereo not shown) [Example 376, 8-chloro-4-((3-chloro-4-fluorophenyl)amino)-6-((pyridin-2-yl(pyridin-3-yl)methyl)amino)-quinoline-3-carbonitrile]",> 1000 nM,,"IC50 [2, 6]: 182 nM"
"Cc1ncsc1[C@H](Nc1cc(Cl)c2ncc(C#N)c(Nc3ccc(Cl)c(Cl)c3F)c2c1)c1cn(C2CCN(C(C)(C)C)CC2)nn1 [Example 236, (R)-6-(((1-(1-(tert-butyl)piperidin-4-yl)-1H-1,2,3-triazol-4-yl)(4-methylthiazol-5-yl)methyl)amino)-8-chloro-4-((3,4-dichloro-2-fluorophenyl)amino)quinoline-3-carbonitrile]",172 nM,9 nM,
"Cc1nc(F)ccc1[C@H](Nc1cc(C#N)c2ncc(C#N)c(NCC(C)(C)C)c2c1)c1cn(C2CC23CC3)nn1 (stereo partly drawn) [Example 872, 6-(((1S)-(6-fluoro-2-methylpyridin-3-yl)(1-(spiro[2.2]pentan-1-yl)-1H-1,2,3-triazol-4-yl)methyl)amino)-4-(neopentylamino)quinoline-3,8-dicarbonitrile]",,,"EC50 [1, 7]: 15 nM; IC50 [2, 8]: 1 nM"
"Cc1nc(F)ccc1[C@H](Nc1cc(C#N)c2ncc(C#N)c(NCC34CC(C3)C4)c2c1)c1cn(C2(C(F)(F)F)CC2)nn1 [Example 848, (S)-4-((bicyclo[1.1.1]pentan-1-ylmethyl)amino)-6-(((6-fluoro-2-methylpyridin-3-yl)(1-(1-(trifluoromethyl)cyclopropyl)-1H-1,2,3-triazol-4-yl)methyl)amino)quinoline-3,8-dicarbonitrile]",,,"EC50 [1, 7]: 247 nM; IC50 [2, 8]: 31 nM"
